Molecules are shown by their SMILES. Read-outs that look alike come from different tables or passages of the source.

Test [1] deals with T1, human Nav1.7 channels (Homo sapiens, UniProt Q15858).
T1 construct: expressed in transfected cells; host or cells: CHO
The test can be described thus: FRET Assay (Method A), human Nav1.7. It is filed as cell-based. How it is done:
(§1) The ability of the aryl substituted carboxamid derivatives of the formula (I) to inhibit the NaV1.3, Nav1.7 and Nav1.5 channels was measured by Fluorescence Resonance Energy Transfer (FRET) assay and electrophysiology assay described below.
This screen was used to determine the effects of compounds on human NaV1.3, human Nav1.7, and human Nav1.5 channels, utilising the cell imaging technology by Hamamatsu Photonics's Functional Drug Screening System (FDSS). The change of membrane potential was monitored with fluorescent membrane potential dye pair, oxonol (DiSBAC2(3)) and coumarin (CC2-DMPE), using FRET technology.
CHO cells expressing human NaV1.7 channels were grown in T225 flasks, in a 5% CO2 humidified incubator to about 80% confluence. Media composition consisted of HAM/F12 with Glutamax I, 10% FCS, 100 units/ml Penicillin and 100 microgram/ml Hygromycin.
Protocol: • Seeded each cell lines (1.5×10^4 cells/well) into poly-D-lysine coated 384-well plates prior to experimentation. • Incubated at 37° C. in 5% CO2 for 24 hours. • Washed each well with buffer #1 (140 mM NaCl, 4.5 mM KCl, 10 mM D-Glucose, 2 mM CaCl2, 1 mM MgCl2, 10 mM HEPES, pH 7.4 adjusted with NaOH) twice. • Added 1st loading solution containing 5 microM CC2-DMPE and 0.02% Pluronic F-127 in buffer #1. • Incubated the plate at room temperature in dark for 0.5 hours. • Washed each well with buffer #2 (160 mM Choline, 10 mM D-Glucose, 0.1 mM CaCl2, 1 mM MgCl2, 10 mM HEPES, pH 7.4 adjusted with KOH) twice. • Added 2nd loading solution containing 15 microM DiSBAC2(3), 0.5 mM VABSC-1, 10 microM veratridine and 0.004% Pluronic F-127 in buffer #2. • Added compound solutions into the assay plate for 30 minutes under the dark at room temperature. • Measured the activity by FDSS.
(§2) The data were analyzed and reported as normalized ratios of intensities measured in the 465 nm and 575 nm channels. […]
(§3) “FI465B”=the mean of fluorescence intensity as baseline (before Na+ ligand addition) at 465 nm
“FI575B”=the mean of fluorescence intensity as baseline (before Na+ ligand addition) at 575 nm […]

Test [2] has as its target T2, Human HERG (Homo sapiens, UniProt Q12809).
T2 construct: expressed in transfected cells; host or cells: HEK293S (membrane homogenate)
The test can be described thus: Human dofetilide binding assay. The method, then: Human Dofetilide Binding Assay
Human HERG transfected HEK293S cells were prepared and grown in-house. The collected cells were suspended in 50 mM Tris-HCl (pH 7.4 at 4° C.) and homogenized using a hand held Polytron PT 1200 disruptor set at full power for 20 sec on ice. The homogenates were centrifuged at 48,000×g at 4° C. for 20 min. The pellets were then resuspended, homogenized, and centrifuged once more in the same manner. The final pellets were resuspended in an appropriate volume of 50 mM Tris-HCl, 10 mM KCl, 1 mM MgCl2 (pH 7.4 at 4° C.), homogenized, aliquoted and stored at −80° C. until use. An aliquot of membrane fractions was used for protein concentration determination using BCA protein assay kit (PIERCE) and ARVOsx plate reader (Wallac). Binding assays were conducted in a total volume of 30 microL in 384-well plates. The activity was measured by PHERAstar (BMG LABTECH) using fluorescence polarization technology. Ten microL of test compounds were incubated with 10 microL of fluorescence ligand (6 nM Cy3B tagged dofetilide derivative) and 10 microL of membrane homogenate (6 microg protein) for 120 minutes at room temperature. Nonspecific binding was determined by 10 microM E4031 at the final concentration.

Test [3] concerns the target T3, human NaV1.3 channels (Homo sapiens, UniProt Q9NY46).
T3 construct: expressed in transfected cells; host or cells: HEK293
The test can be described thus: FRET Assay (Method A), human NaV1.3. It is filed as cell-based. The note with it: read-out: against Nav1.3 in FRET Assay (Method A). The method, then: as §1
This screen was used to determine the effects of compounds on human NaV1.3, human Nav1.7, and human Nav1.5 channels, utilising the cell imaging technology by Hamamatsu Photonics's Functional Drug Screening System (FDSS). The change of membrane potential was monitored with fluorescent membrane potential dye pair, oxonol (DiSBAC2(3)) and coumarin (CC2-DMPE), using FRET technology. […]
as §2, §3
“FI575B”=the mean of fluorescence intensity as baseline (before Na+ ligand addition) at 575 nm
“FI465Max”=maximum fluorescence intensity at 465 nm after Na+ stimulation
“FI575 Min”=minimum fluorescence intensity at 575 nm after Na+ stimulation
This analysis was performed using a computerized specific program designed for FDSS generated data. Fluorescence ratio values were plotted using XLfit to determine an IC50 value for each compound.

Where [4] appears, read: Table 5, method A or B not stated, read-out: IC50 in the Nav1.7 FRET Assay.

T1 sequence (Q15858 whole entry): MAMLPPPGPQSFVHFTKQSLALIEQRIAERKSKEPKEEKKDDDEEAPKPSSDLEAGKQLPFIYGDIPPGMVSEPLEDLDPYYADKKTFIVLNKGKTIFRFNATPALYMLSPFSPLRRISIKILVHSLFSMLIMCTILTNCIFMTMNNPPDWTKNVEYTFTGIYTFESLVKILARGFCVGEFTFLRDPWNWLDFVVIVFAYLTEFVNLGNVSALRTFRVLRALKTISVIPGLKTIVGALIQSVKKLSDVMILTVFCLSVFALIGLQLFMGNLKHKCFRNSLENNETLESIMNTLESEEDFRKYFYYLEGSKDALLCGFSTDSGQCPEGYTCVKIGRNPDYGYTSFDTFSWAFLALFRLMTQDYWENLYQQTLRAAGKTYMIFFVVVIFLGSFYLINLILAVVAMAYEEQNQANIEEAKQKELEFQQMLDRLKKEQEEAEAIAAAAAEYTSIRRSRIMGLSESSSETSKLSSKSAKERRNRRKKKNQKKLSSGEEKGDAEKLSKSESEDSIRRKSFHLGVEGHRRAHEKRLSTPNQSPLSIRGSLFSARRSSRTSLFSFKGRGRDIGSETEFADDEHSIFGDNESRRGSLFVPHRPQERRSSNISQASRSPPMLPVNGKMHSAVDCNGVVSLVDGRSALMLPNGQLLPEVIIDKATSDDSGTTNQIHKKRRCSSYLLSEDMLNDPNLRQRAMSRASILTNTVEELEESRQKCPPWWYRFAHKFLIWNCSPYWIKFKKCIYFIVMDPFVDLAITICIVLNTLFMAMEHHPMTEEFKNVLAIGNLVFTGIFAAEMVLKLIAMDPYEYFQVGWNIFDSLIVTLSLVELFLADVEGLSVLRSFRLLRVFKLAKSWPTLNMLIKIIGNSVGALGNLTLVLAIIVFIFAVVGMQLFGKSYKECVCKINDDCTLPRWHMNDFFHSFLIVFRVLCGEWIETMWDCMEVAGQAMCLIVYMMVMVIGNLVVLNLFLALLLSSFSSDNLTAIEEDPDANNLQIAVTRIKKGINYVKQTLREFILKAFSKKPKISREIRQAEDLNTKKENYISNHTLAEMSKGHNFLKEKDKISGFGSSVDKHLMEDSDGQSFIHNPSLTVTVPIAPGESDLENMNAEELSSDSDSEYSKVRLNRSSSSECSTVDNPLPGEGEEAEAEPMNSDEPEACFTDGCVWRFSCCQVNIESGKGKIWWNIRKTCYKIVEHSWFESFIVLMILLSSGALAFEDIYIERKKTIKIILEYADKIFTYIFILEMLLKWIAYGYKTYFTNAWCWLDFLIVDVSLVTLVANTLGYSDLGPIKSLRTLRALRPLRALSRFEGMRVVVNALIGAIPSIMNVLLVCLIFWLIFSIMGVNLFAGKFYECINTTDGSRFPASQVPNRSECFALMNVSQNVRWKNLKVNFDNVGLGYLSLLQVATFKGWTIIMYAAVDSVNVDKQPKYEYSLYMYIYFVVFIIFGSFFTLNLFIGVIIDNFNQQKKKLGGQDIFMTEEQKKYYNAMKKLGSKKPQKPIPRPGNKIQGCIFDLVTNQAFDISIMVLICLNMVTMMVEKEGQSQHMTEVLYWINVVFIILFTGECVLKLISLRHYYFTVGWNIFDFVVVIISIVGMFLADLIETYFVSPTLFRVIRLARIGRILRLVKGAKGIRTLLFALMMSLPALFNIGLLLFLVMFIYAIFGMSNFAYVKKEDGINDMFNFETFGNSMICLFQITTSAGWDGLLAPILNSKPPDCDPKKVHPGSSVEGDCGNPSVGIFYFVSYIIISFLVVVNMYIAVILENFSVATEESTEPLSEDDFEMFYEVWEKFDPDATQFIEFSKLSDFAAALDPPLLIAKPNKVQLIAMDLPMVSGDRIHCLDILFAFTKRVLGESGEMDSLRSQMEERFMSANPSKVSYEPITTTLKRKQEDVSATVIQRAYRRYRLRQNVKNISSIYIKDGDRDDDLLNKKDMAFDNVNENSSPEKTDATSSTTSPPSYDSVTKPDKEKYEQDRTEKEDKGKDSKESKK
T2 sequence (Q12809 whole entry): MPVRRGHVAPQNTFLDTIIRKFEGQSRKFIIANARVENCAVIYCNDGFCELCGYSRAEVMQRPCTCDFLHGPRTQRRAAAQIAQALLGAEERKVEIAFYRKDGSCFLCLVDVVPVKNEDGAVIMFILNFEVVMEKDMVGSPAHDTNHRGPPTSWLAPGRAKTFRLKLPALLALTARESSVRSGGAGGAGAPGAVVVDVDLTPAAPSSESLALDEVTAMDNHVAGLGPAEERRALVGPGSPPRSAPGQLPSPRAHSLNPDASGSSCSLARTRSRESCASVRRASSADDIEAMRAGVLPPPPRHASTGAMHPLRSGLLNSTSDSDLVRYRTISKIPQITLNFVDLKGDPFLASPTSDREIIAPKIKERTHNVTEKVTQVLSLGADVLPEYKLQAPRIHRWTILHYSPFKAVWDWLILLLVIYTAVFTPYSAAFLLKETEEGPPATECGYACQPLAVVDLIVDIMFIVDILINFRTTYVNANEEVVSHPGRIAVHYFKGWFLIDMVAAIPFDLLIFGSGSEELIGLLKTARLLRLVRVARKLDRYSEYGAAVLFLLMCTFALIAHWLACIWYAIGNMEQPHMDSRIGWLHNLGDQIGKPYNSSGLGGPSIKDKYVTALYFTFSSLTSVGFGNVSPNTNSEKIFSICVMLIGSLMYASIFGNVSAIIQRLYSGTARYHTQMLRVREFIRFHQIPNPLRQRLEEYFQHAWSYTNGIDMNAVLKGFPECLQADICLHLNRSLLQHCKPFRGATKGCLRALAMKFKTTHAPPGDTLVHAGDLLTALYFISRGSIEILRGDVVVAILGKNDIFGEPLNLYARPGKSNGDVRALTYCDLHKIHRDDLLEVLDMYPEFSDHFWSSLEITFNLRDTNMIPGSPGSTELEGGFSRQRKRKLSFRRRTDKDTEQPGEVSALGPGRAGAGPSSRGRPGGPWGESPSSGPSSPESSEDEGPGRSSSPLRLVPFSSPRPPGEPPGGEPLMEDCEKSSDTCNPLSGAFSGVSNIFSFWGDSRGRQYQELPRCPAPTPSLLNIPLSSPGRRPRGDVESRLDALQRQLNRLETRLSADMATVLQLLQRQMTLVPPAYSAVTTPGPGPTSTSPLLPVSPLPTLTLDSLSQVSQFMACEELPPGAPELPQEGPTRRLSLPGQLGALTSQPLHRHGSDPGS
T3 sequence (Q9NY46 whole entry): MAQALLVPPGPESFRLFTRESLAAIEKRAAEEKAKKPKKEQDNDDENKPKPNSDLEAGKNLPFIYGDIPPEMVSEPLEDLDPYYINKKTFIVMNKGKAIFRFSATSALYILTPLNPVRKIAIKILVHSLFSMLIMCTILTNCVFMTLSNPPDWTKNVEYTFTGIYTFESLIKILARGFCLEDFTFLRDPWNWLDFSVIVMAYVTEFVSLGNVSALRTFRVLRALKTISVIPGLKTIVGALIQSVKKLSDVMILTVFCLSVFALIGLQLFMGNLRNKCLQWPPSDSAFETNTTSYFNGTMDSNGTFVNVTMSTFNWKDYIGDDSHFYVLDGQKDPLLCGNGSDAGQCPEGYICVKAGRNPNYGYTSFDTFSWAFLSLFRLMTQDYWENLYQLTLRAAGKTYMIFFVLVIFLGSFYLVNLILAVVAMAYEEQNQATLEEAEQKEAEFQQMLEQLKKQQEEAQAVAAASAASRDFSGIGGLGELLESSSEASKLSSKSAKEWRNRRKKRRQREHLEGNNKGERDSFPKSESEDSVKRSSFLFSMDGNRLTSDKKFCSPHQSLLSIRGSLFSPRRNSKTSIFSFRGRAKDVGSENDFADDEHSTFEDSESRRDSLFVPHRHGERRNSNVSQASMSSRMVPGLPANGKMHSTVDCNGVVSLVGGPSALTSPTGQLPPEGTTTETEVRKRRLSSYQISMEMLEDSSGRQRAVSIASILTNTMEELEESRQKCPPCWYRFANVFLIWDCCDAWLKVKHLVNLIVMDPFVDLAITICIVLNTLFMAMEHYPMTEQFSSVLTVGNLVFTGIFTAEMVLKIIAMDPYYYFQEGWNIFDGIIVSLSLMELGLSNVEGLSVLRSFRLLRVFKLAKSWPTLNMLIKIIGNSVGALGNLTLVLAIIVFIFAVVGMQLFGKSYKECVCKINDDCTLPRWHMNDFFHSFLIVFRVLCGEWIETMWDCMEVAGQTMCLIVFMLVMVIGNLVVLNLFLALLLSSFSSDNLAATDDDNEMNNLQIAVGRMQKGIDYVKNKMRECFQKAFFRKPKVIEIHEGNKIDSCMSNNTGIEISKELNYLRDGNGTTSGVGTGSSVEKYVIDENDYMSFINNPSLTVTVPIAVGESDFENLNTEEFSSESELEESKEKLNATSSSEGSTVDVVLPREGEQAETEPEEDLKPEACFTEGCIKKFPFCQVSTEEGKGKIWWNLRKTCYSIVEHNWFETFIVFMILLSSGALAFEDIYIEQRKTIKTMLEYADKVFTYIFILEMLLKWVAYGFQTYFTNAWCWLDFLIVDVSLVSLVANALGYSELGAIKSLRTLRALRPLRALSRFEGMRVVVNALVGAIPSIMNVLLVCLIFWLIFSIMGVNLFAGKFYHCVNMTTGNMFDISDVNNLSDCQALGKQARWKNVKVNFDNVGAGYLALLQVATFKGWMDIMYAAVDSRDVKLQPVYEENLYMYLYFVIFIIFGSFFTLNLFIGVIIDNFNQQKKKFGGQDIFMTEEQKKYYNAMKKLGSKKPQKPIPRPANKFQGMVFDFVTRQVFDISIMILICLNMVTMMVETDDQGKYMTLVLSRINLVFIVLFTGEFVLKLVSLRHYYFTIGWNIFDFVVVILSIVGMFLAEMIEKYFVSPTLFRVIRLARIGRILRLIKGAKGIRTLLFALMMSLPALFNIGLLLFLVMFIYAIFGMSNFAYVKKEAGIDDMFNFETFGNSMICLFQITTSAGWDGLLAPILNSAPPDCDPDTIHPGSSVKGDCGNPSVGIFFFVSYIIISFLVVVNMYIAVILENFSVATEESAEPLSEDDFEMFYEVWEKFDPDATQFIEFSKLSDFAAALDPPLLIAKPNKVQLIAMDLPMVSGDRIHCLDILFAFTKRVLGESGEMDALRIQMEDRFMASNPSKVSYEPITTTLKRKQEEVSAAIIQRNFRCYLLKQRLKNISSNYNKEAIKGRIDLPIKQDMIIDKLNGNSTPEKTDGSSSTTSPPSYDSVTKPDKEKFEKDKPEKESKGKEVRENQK

With `O=C(c1cnc2ccccc2c1)N1CCC(Oc2ccc(Cl)cc2)CC1` [Example 10, (4-(4-chlorophenoxy)piperidin-1-yl)(quinolin-3-yl) methanone], the IC50 in test [1] (setting [4]) was 0.36 µM; in test [2], 7.91 µM.

With `O=c1[nH]ccnc1CN1CCC(COc2ccccc2)CC1` [Example 198 in WO 2003/084948, 3-((4-(phenoxymethyl)piperidin-1-yl)methyl)pyrazin-2(1H)-one, reference compound], the IC50 in test [1] (read-out: against Nav1.7 in FRET Assay (Method A)) was 15 µM; in test [3] it was over 30 µM.

Turning to `Clc1ccc(OC2CCN(Cc3cnc4ccccc4c3)CC2)cc1` [Example 726], the results for the IC50 in test [1] (setting [4]) and in test [2] were 0.47 µM and 0.28 µM, respectively.

For the origin of these results see patent publication US9051296B2, “Aryl carboxamide derivatives as TTX-S blockers” (RaQualia Pharma Inc., priority 2009, dated 2015).
